This passage reports IC50 and inhibition results from US7473790B2 (Pfizer Inc., priority 2003, dated 2009).

pIC50: −log10 of the molar value.

In the test the target is T1, HCV polymerase (Hepatitis C virus genotype 1b, UniProt P26663).
T1 construct: 2.5 pmoles (0.15 μg) HCV polymerase protein in a final volume of 75 μL
The experiment in a line: HCV polymerase primer/template-directed transcription assay (32P-GTP incorporation, filter binding). It counts as biochemical. The settings on record: for pIC50: recombinant HCV polymerase, 30 minutes at 30° C., concentration giving 50% inhibition of polymerase-directed transcription, read-out: IC50. The essentials: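 Recombinant genotype 1b polymerase (30 nM) extended biotin-dG12 primer on poly(rC)300 template with 1 μM GTP plus α-32P-GTP, pH 7.2, 10 mM MgCl2, 30 min at 30° C, 1% DMSO final. Products captured on DE filters and counted. IC50 fitted from triplicate cpm, with a tight-binding correction applied below 200 nM.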

T1 sequence (P26663 2420-3010): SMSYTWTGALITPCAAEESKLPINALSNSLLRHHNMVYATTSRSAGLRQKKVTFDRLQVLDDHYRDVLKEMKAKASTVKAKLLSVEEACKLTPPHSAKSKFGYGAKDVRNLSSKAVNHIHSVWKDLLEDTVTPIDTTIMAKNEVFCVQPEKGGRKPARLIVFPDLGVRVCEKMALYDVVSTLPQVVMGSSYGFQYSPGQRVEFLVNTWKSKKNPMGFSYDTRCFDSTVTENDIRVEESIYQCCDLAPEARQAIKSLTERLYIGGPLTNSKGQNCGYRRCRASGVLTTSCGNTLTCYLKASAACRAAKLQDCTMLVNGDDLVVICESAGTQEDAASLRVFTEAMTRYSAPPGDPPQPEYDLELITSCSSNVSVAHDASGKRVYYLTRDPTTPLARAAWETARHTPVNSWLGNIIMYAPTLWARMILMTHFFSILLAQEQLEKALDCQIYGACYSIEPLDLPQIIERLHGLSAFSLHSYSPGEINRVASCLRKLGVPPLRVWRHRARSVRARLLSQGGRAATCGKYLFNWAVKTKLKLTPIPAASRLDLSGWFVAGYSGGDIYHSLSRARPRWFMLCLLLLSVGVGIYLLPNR

What is called pIC50 is the negative decadic logarithm of the IC50, by convention in mol/L. Turning to `CCc1cc(CCC2(C3CCCC3)CC(O)=C(Cc3nc4ncc(Cl)cn4n3)C(=O)O2)ccc1O` (racemic) [A(271), 3-(6-Chloro-[1,2,4]triazolo[1,5-a]pyrimidin-2-ylmethyl)-6-cyclopentyl-6-[2-(3-ethyl-4-hydroxy-phenyl)-ethyl]-4-hydroxy-5,6-dihydro-pyran-2-one], the negative logarithm of the IC50 (pIC50) was 8.22.

For the molecule `COc1ccc(CCC2(C3CCCC3)CC(O)=C(Cc3ncc[nH]3)C(=O)O2)cc1Cl` (stereo not drawn) [B(30), 6-[2-(3-Chloro-4-methoxy-phenyl)-ethyl]-6-cyclopentyl-4-hydroxy-3-(1H-imidazol-2-ylmethyl)-5,6-dihydro-pyran-2-one], the negative logarithm of the IC50 (pIC50) is 5.70.

Consider `COc1ccc(CCC2(C3CCCC3)CC(O)=C(Sc3ncccc3C#N)C(=O)O2)cc1Cl` (stereo not drawn) [C(56), 2-({6-[2-(3-chloro-4-methoxyphenyl)ethyl]-6-cyclopentyl-4-hydroxy-2-oxo-5,6-dihydro-2H-pyran-3-yl}thio)nicotinonitrile], for which the negative logarithm of the IC50 (pIC50) is 5.89.

For the molecule `Cc1cnc2nc(CC3=C(O)CC(CCc4ccc(C5(C#N)CC5)c(Cl)c4)(C4CCCC4)OC3=O)nn2c1` (stereo not drawn) [B(125), 1-(2-Chloro-4-{2-[2-cyclopentyl-4-hydroxy-5-(6-methyl-[1,2,4]triazolo[1,5-a]pyrimidin-2-ylmethyl)-6-oxo-3,6-dihydro-2H-pyran-2-yl]-ethyl}-phenyl)-cyclopropanecarbonitrile], the pIC50 was 8.40.

As to `CCC(=O)c1cc(OC)ccc1CCC1(C2CCCC2)CC(=O)CC(=O)O1` (stereo not drawn) [A(62), 6-cyclopentyl-6-[2-(4-methoxy-2-propionylphenyl)ethyl]dihydro-2H-pyran-2,4(3H)-dione], the negative logarithm of the IC50 (pIC50) is 5.08.

On to `CCc1ccc(OCCOC)c(CCC2(C3CCCC3)CC(=O)CC(=O)O2)c1` (stereo not drawn) [A(178), 6-Cyclopentyl-6-{2-[5-ethyl-2-(2-methoxy-ethoxy)-phenyl]-ethyl}-dihydro-pyran-2,4-dione], for which the pIC50 is 5.89.

On to `CNC(=O)C(C)(C)c1ccc(CCC2(C3CCCC3)CC(=O)CC(=O)O2)cc1` (stereo not drawn) [A(49), 2-{4-[2-(2-Cyclopentyl-4,6-dioxo-tetrahydro-pyran-2-yl)-ethyl]-phenyl}-N-methyl-isobutyramide], for which the negative-log IC50 (pIC50) is 5.05.

For the molecule `N#CC1(c2ccc(CCC3(C4CCCC4)CC(=O)CC(=O)O3)cc2F)CC1` (stereo not drawn) [A(86), 1-{4-[2-(2-Cyclopentyl-4,6-dioxo-tetrahydro-pyran-2-yl)-ethyl]-2-fluoro-phenyl}-cyclopropanecarbonitrile], the pIC50 is 6.40.

Regarding `CCc1cc(CCC2(C3CCCC3)CC(O)=C(Cc3nc4nc(C)cc(C)n4n3)C(=O)O2)cc(Cl)c1OC` (stereo not drawn) [B(97), 6-[2-(3-Chloro-5-ethyl-4-methoxy-phenyl)-ethyl]-6-cyclopentyl-3-(5,7-dimethyl-[1,2,4]triazolo[1,5-a]pyrimidin-2-ylmethyl)-4-hydroxy-5,6-dihydro-pyran-2-one], the pIC50 was 8.05.

`COc1ccc(CCC2(C3CCCC3)CC(O)=C(Sc3nnc(-c4ccc(O)cc4)[nH]3)C(=O)O2)cc1Cl` (stereo not drawn) [C(23), 6-[2-(3-Chloro-4-methoxy-phenyl)-ethyl]-6-cyclopentyl-3-[5-(4-hydroxy-phenyl)-4H-[1,2,4]triazol-3-ylsulfanyl]-dihydro-pyran-2,4-dione]: the negative logarithm of the IC50 (pIC50) is 7.30.

In the case of `COc1ccc(CCC2(C3CCCC3)CC(=O)C(Cc3ccccn3)C(=O)O2)cc1Cl` (stereo not drawn) [B(81), 6-[2-(3-chloro-4-methoxyphenyl)ethyl]-6-cyclopentyl-3-(pyridin-2-ylmethyl)dihydro-2H-pyran-2,4(3H)-dione], the pIC50 was approximately 6.62.

On to `CCOc1c(Cl)cc(CCC2(C3CCCC3)CC(O)=C(Cc3nc4nc(C)cc(C)n4n3)C(=O)O2)cc1Cl` (stereo not drawn) [B(37), 6-Cyclopentyl-6-[2-(3,5-dichloro-4-ethoxy-phenyl)-ethyl]-3-(5,7-dimethyl-[1,2,4]triazolo[1,5-a]pyrimidin-2-ylmethyl)-4-hydroxy-5,6-dihydro-pyran-2-one], for which the pIC50 was 8.10.

As to `CCc1cc(CCC2(C3CCCC3)CC(O)=C(Cc3nc4nc(C)cc(C)n4n3)C(=O)O2)ccc1OCCOC` (stereo not drawn) [A(183), 6-Cyclopentyl-3-(5,7-dimethyl-[1,2,4]triazolo[1,5-a]pyrimidin-2-ylmethyl)-6-{2-[3-ethyl-4-(2-methoxy-ethoxy)-phenyl]-ethyl}-4-hydroxy-5,6-dihydro-pyran-2-one], the pIC50 was 8.15.

`O=C1CC(=O)OC(CCC2CCCCC2)(C2CCCC2)C1` (stereo not drawn) [A(44), 6-(2-Cyclohexyl-ethyl)-6-cyclopentyl-dihydro-pyran-2,4-dione]: the pIC50 is 4.17.

Take `COc1ccc(CCC2(C3CCCC3)CC(O)=C(Cc3nc4nc(C)cc(C)n4n3)C(=O)O2)cc1Cl` (stereo not drawn) [B(13), 6-[2-(3-Chloro-4-methoxy-phenyl)-ethyl]-6-cyclopentyl-3-(5,7-dimethyl-[1,2,4]triazolo[1,5-a]pyrimidin-2-ylmethyl)-dihydro-pyran-2,4-dione]: the negative logarithm of the IC50 (pIC50) is 7.70.

In the case of `Cc1cnc2nc(CC3=C(O)CC(CCc4ccc(C(C)(C)CO)c(F)c4)(C4CCCC4)OC3=O)nn2c1` (stereo not drawn) [A(269), 6-Cyclopentyl-6-{2-[3-fluoro-4-(2-hydroxy-1,1-dimethyl-ethyl)-phenyl]-ethyl}-4-hydroxy-3-(6-methyl-[1,2,4]triazolo[1,5-a]pyrimidin-2-ylmethyl)-5,6-dihydro-pyran-2-one], the negative-log IC50 (pIC50) was 7.59.

As to `O=C1CC(=O)OC(CCCNC(=O)CCc2ccco2)(C2CCCC2)C1` (stereo not drawn) [H(3), N-[3-(2-Cyclopentyl-4,6-dioxo-tetrahydro-pyran-2-yl)-propyl]-3-furan-2-yl-propionamide], the pIC50 was 5.92.

For `N#CCC(=O)c1ccc(C#CC2(C3CCCC3)CC(=O)CC(=O)O2)cc1` (stereo not drawn) [E(1), 3-[4-(2-Cyclopentyl-4,6-dioxo-tetrahydro-pyran-2-ylethynyl)-phenyl]-3-oxo-propionitrile], the negative-log IC50 (pIC50) was 4.66.

Take `O=C1CC(=O)OC(CCCCC2CCCCC2)(C2CCCC2)C1` (stereo not drawn) [A(57), 6-(4-Cyclohexyl-butyl)-6-cyclopentyl-dihydro-pyran-2,4-dione]: the pIC50 is 5.20.

Broadly, the inhibition is the percentage by which the read-out fell short of the control. Take `CCC1(CCc2ccc(OC)cc2)CC(O)=C(Sc2nc3nc(C)cc(C)n3n2)C(=O)O1` (stereo not drawn) [C(16), 3-(5,7-Dimethyl-[1,2,4]triazolo[1,5-a]pyrimidin-2-ylsulfanyl)-6-ethyl-4-hydroxy-6-[2-(4-methoxy-phenyl)-ethyl]-5,6-dihydro-pyran-2-one]: the inhibition at 20 µM (@ 20 uM compound, given where IC50 was impractical to calculate, read-out: percent inhibition) was 8%.

`CC(C)(C#N)c1c(F)cc(CCC2(C3CCCC3)CC(O)=C(Cc3nc4ncc(Cl)cn4n3)C(=O)O2)cc1F` (stereo not drawn) [A(142)]: the pIC50 is 8.40.

`CCC(C#N)(CC)c1ccc(CCC2(C3CCCC3)CC(O)=C(Cc3nc4ncc(Cl)cn4n3)C(=O)O2)cc1F` (single isomer, unassigned; (+)) [A(266), (+)-2-(4-{2-[5-(6-Chloro-[1,2,4]triazolo[1,5-a]pyrimidin-2-ylmethyl)-2-cyclopentyl-4-hydroxy-6-oxo-3,6-dihydro-2H-pyran-2-yl]-ethyl}-2-fluoro-phenyl)-2-ethyl-butyronitrile]: the negative-log IC50 (pIC50) is 7.72.

With `Cc1cc(C)n2nc(CC3=C(O)CC(CCc4ccc(O)c(C(C)(C)C)c4)(C4CCCC4)OC3=O)nc2n1` (stereo not drawn) [B(08), 6-[2-(3-tert-Butyl-4-hydroxy-phenyl)-ethyl]-6-cyclopentyl-3-(5,7-dimethyl-[1,2,4]triazolo[1,5-a]pyrimidin-2-ylmethyl)-4-hydroxy-5,6-dihydro-pyran-2-one], the pIC50 was 7.89.

Regarding `CCc1cc(CCC2(C3CCCC3)CC(O)=C(Cc3nc4ncccn4n3)C(=O)O2)c(OC)cc1O` (single isomer, unassigned) [A(208), 6-cyclopentyl-6-[2-(5-ethyl-4-hydroxy-2-methoxyphenyl)ethyl]-4-hydroxy-3-([1,2,4]triazolo[1,5-a]pyrimidin-2-ylmethyl)-5,6-dihydro-2H-pyran-2-one], the negative logarithm of the IC50 (pIC50) is 8.15.

`CC(C)(C#N)c1c(F)cc(CCC2(C3CCCC3)CC(O)=C(Cc3nc4ncc(Cl)cn4n3)C(=O)O2)cc1F` (single isomer, unassigned; (+)) [A(259), (+)-2-(4-{2-[5-(6-Chloro-[1,2,4]triazolo[1,5-a]pyrimidin-2-ylmethyl)-2-cyclopentyl-4-hydroxy-6-oxo-3,6-dihydro-2H-pyran-2-yl]-ethyl}-2,6-difluoro-phenyl)-2-methyl-propionitrile]: the pIC50 was 8.22.

With `C[C@@H](O)c1ccc(CCC2(C3CCCC3)CC(O)=C(Cc3nc4ncc(Cl)cn4n3)C(=O)O2)cc1F` (stereo in doubt) [B(116), 3-(6-Chloro-[1,2,4]triazolo[1,5-a]pyrimidin-2-ylmethyl)-6-cyclopentyl-6-{2-[3-fluoro-4-(1-hydroxy-ethyl)-phenyl]-ethyl}-4-hydroxy-5,6-dihydro-pyran-2-one], the pIC50 is 7.96.

For `CC(=O)Oc1ccc(CCC2(C3CCCC3)CC(=O)CC(=O)O2)cc1C(C)C` (stereo not drawn) [A(94), Acetic acid 4-[2-(2-cyclopentyl-4,6-dioxo-tetrahydro-pyran-2-yl)-ethyl]-2-isopropyl-phenyl ester], the pIC50 is 5.40.

`O=C1CC(=O)OC(CCc2ccc(C3(C4CC4)CC(=O)CC(=O)O3)cc2)(C2CCCC2)C1` (stereo not drawn) [A(31)]: the pIC50 is 6.40.

As to `N#CC1(c2ccc(CCC3(C4CCCC4)CC(=O)CC(=O)O3)cc2F)CCC1` (stereo not drawn) [A(237), 1-{4-[2-(2-Cyclopentyl-4,6-dioxo-tetrahydro-pyran-2-yl)-ethyl]-2-fluoro-phenyl}-cyclobutanecarbonitrile], the pIC50 was 6.00.

Take `CCC(C#N)(CC)c1ccc(CCC2(C3CCCC3)CC(O)=C(Cc3nc4ncc(Cl)cn4n3)C(=O)O2)cc1F` (racemic) [A(265), 2-(4-{2-[5-(6-Chloro-[1,2,4]triazolo[1,5-a]pyrimidin-2-ylmethyl)-2-cyclopentyl-4-hydroxy-6-oxo-3,6-dihydro-2H-pyran-2-yl]-ethyl}-2-fluoro-phenyl)-2-ethyl-butyronitrile]: the negative-log IC50 (pIC50) was 8.40.
